{"source": "patent US20120046321A1", "about": "“METHODS OF TREATING ATRIAL FIBRILLATION WITH P38 INHIBITOR COMPOUNDS” (INTERMUNE, INC., priority 2005, published 2012)", "format_in_all_cases": "in vivo, canine", "key": {"[1]": {"test_system": "canines with ventricular tachypacing (VTP)-induced congestive heart failure (CHF)", "assay": "Open-chest electrophysiology and epicardial mapping (ERP, CV, conduction heterogeneity)", "description": "Briefly, 15 adult mongrel canines (weight 20 to 32 kgs) were divided into 3 groups (n=5 in each group) as follows: Group 1: Normal; Group 2: CHF canines not treated with PFD (or CHF); and Group 3: CHF canines treated with PFD (or CHF+PFD). […] The CHF and CHF+PFD canines underwent placement of a permanent single-chamber pacemaker with the pacing lead positioned in the right ventricular apex followed by radiofrequency catheter ablation of the AV junction to create complete heart block. Canines in the CHF and CHF+PFD groups underwent 3 weeks of VTP at a rate of 220 bpm. Oral PFD (800 mg three times a day) (InterMune, Brisbane, Calif.) was started 2 days prior to the initiation of VTP and was given for the full duration of the pacing period. During the follow-up EP study, each animal was anesthetized with isoflurane and mechanically ventilated. The pacemaker rate was set at 80 bpm at twice diastolic threshold for the entire EP study. The chest was opened with a midline sternotomy. A pericardial cradle was created, and 4 custom-made, epicardial, high-density plaques (left atrial free wall (LAFW); left atrial Bachmann's bundle (LABB); right atrial free wall (RAFW); right atrial Bachmann's bundle (RABB)) were placed over the atria (512 electrodes with an inter-electrode distance of 2.5 mm), similar to the setup described in Verheule S, et al., Circulation 107:2615-22 (2003) and Sih H J, et al. J Am Coll Cardiol. 36:924-31 (2000). Unipolar electrode signals were acquired (sampling rate 2 kHz) and stored with the UnEmap mapping system (University of Auckland, New Zealand). Electrode pairs on the epicardial plaque were used for bipolar stimulation at twice diastolic threshold. Effective refractory periods (ERPs) were measured at 12 atrial sites (6 in LA, 6 in RA) using the single extrastimulus protocol (S1S2) at an 8-beat drive train basic cycle lengths (BCLs) of 200, 300, and 400 ms. During stimulation of the contralateral Bachmann's bundle, conduction velocity (CV) was calculated between pairs of plaque electrodes perpendicular to the activation wavefront with a custom-written software. Verheule S, et al., Am J Physiol Heart Circ Physiol. 2004; 287:H634-44; and Bayly P V, et al., IEEE Trans Biomed Eng. 1998; 45:563-71. Used as a marker of conduction heterogeneity (Verheule S, et al., Am J Physiol Heart Circ Physiol. 2004; 287:H634-44; Bayly P V, et al., IEEE Trans Biomed Eng. 1998; 45:563-71; and Ausma J, et al., Circulation. 1997; 96:3157-63), the phase difference (ms/mm) was defined as the average difference in activation time between a plaque electrode from all of its neighboring electrodes normalized by the inter-electrode distance. Frequency histograms were constructed for the phase differences within an atrial region. The histograms were summarized as the median phase (P50), and the 5th and 95th percentile phase, or P5 and P95 of the distribution, respectively. Two measures were derived to quantify conduction heterogeneity: 1) absolute conduction heterogeneity, defined as P95-P5 (P95-5), and 2) conduction heterogeneity index, defined as the absolute conduction heterogeneity normalized by the median phase, or P95-5/P50."}, "[2]": {"test_system": "total c-Jun N-terminal kinase (JNK)", "assay": "Western blot of atrial tissue", "conditions": "CHF+PFD vs CHF", "description": "(§1) Expression of MAPks in atrial tissue was evaluated using Western Blot analysis. Briefly, atrial tissue specimen containing an equal amount of total protein (10 μg) was electrophoresed on a 4-20% Tris-glycine gel and then transferred onto a nitrocellulose filter. Non-specific binding sites were blocked with 4% BSA, and the filter was incubated with diluted antibody and a matched secondary antibody (all antibodies were obtained from Chemicon, Temecular, Calif.). Protein bands were analyzed with an enhanced chemiluminescence detection method using horseradish peroxidase, based on the recommendations from the manufacturer (NEN Life Science, Boston, Mass.)."}, "total p-38": {"test_system": "total p-38", "assay": "Western blot of atrial tissue", "conditions": "CHF+PFD vs CHF", "description": "as §1"}, "[3]": {"test_system": "total extracellular signal-regulated protein kinase (ERK)", "assay": "Western blot of atrial tissue", "conditions": "CHF+PFD vs CHF", "description": "as §1"}, "TNF-α": {"test_system": "TNF-α", "assay": "Western blot of atrial tissue", "conditions": "3 groups"}, "TGF-β1": {"test_system": "TGF-β1", "assay": "Western blot of atrial tissue", "conditions": "CHF+PFD vs CHF"}, "[4]": {"test_system": "matrix metalloproteinase (MMP)-9", "assay": "Western blot of atrial tissue", "conditions": "active form 88 kDa, CHF+PFD vs CHF"}, "IL-6": {"test_system": "IL-6", "assay": "Western blot of atrial tissue", "conditions": "3 groups"}, "[5]": {"test_system": "canines with heart failure produced by 4 weeks of rapid ventricular pacing", "assay": "AF inducibility after PFD started once 4 weeks of rapid ventricular pacing ended (Example 7)", "conditions": "two canines, pacemakers turned off at 4 weeks, then PFD for 3 weeks", "description": "AF inducibility was assessed by both the single-extrastimulus protocol (as above) and a burst pacing protocol which consisted of pacing at one LA site and one RA site. A total of 16 burst stimulations were carried out for each animal with each atrial site receiving 8 burst […] (4 for a duration of 6 seconds and 4 for 12 seconds) at a CL of 50 ms and a stimulus output of 0.5 V+twice diastolic threshold. AF was considered sustained if the induced episode lasted >[…] at which time the longest AF duration was taken as 3600 seconds and used for analysis. Two adult mongrel canines (weight 20 to 32 kgs) with heart failure produced by 4 weeks of rapid ventricular pacing as described above were evaluated for AF inducibility following PFD treatment. Briefly, pacemakers were turned off at 4 weeks and PFD started for 3 weeks. A follow-up study for AF inducibility after 3 weeks of PFD treatment was performed as described above."}}, "note": "“Also recorded” adds a separate entry of the source."}
{"molecule": "Cc1ccc(=O)n(-c2ccccc2)c1", "note": "[PFD, 5-methyl-1-phenyl-2-(1H)-pyridone]", "values": [{"measurement": "LA CVs compared with the untreated group", "setting": "[1]; 3 pacing BCLs", "value": "non-statistically significant increase"}, {"measurement": "LA ERPs", "setting": "[1]; BCLs 200, 300, 400 ms, p=NS vs untreated, p<0.03 vs Normal", "value": "further lengthening"}, {"measurement": "Conduction heterogeneity index (P95-5/P50) in the LA", "setting": "[1]; all BCLs, p<0.02 at 300 and 400 ms", "value": "reduction"}, {"measurement": "Absolute conduction heterogeneity (P95-5) in the LA", "setting": "[1]; all BCLs, p<0.04 at 400 ms", "value": "reduction"}, {"measurement": "Absolute conduction heterogeneity (P95-5) in the RA", "setting": "[1]; p<0.003 at 400 ms", "value": "decrease"}, {"measurement": "Conduction heterogeneity index (P95-5/P50) in the RA", "setting": "[1]; p<0.003 at 400 ms", "value": "decrease"}, {"measurement": "Local conduction heterogeneity in isochronal activation maps", "setting": "[1]; pacing CL 300 ms, 4 atrial plaques", "value": "less"}, {"measurement": "Expression of total JNK (c-Jun)", "setting": "[2]", "value": "downregulation; also recorded: reduced"}, {"measurement": "Expression of total p-38", "setting": "total p-38", "value": "downregulation; also recorded: reduced"}, {"measurement": "Expression of total ERK", "setting": "[3]", "value": "downregulation; also recorded: reduced"}, {"measurement": "Expression of TNF-α", "setting": "TNF-α", "value": "unchanged; also recorded: not markedly different"}, {"measurement": "Expression of TGF-β1", "setting": "TGF-β1", "value": "downregulation; also recorded: reduced"}, {"measurement": "Expression of MMP-9", "setting": "[4]", "value": "downregulation; also recorded: reduced"}, {"measurement": "Expression of IL-6", "setting": "IL-6", "value": "unchanged; also recorded: not markedly different"}, {"measurement": "AF inducibility after 3 weeks of PFD treatment", "setting": "[5]", "value": "AF was not found"}]}
